According to patent US5576305A, “Intercellular adhesion mediators” (Cytel Corporation, priority 1995, dated 1996):

Columns and labels:
rolling leukocytes = experiment: leukocyte rolling (histamine-induced recruitment of rolling leukocytes); type: in vivo, rat; settings: FIG. 15, in words
recombinant E-selectin = experiment: inhibition of binding of HL-60 cells to recombinant E-selectin; type: cell-based; settings: FIG. 13, concentration dependence, in words
selectin = experiment: inhibitory effect of oligosaccharides on selectin-mediated adhesion; type: cell-based; settings: in words

Compound	recruitment of rolling leukocytes / leukocyte rolling (rolling leukocytes)	inhibition of binding of HL-60 cells to recombinant E-selectin (recombinant E-selectin)	inhibitory effect relative to the tetrasaccharide (selectin)
CCOC1OC(CO)C(O)C(OC2OC(CO)C(OC3OC(CO)C(O)C(OC4(C(=O)O)CC(O)C(NC(C)=O)C(C(O)C(O)CO)O4)C3O)C(OC3OC(C)C(O)C(O)C3O)C2NC(C)=O)C1O [Z, Ethyl (sodium (5-acetamido-3,5-dideoxy-α-D-glycero-D-galacto-2-nonulopyanosylonate))-(2-3)-O-(β-D-galactopyranosyl)-(1-4)-O-((α-L-fucopyranosyl)-(1-3))-O-(2-acetamido-2-deoxy-β-D-glucopyranosyl)-(1-3)-O-β-D-galactopyranoside]	inhibited leukocyte rolling	inhibition of binding of HL-60 cells to recombinant E-selectin in a concentration dependent manner	–
NeuAcα2,3Galβ1,4(Fucα1,3)GlcNAcβ1,3Galβ--	–	–	substantially more inhibitory effect than the tetrasaccharide
CCO[C@@H]1O[C@H](CO)[C@H](O)[C@H](O[C@@H]2O[C@H](CO)[C@@H](O[C@@H]3O[C@H](CO)[C@H](O)[C@H](O[C@]4(C(=O)O)C[C@H](O)[C@@H](NC(C)=O)[C@H]([C@H](O)[C@H](O)CO)O4)[C@H]3O)[C@H](O)[C@H]2NC(C)=O)[C@H]1O [SLN, reference compound]	had no effect	–	–
